Measurements: patent US12522583B2, “Benzimidazole derivatives and aza-benzimidazole derivatives as Janus kinase 2 inhibitors and uses thereof” (Dana-Farber Cancer Institute, Inc., priority 2018, dated 2026)

How the values were obtained:
Assay in all cases: KINOMEscan
Assay type in all cases: binding
[1] = biological target: MAST1 (Homo sapiens (Human), UniProt Q9Y2H9); details: read-out: percent control
Description: (§1) Example 2. In Vitro Kinase Selectivity Profiling of the Compounds of the Present Disclosure

[2] = biological target: TYK2(JH2domain-pseudokinase) (Homo sapiens (Human), UniProt P29597); details: read-out: percent control
Description: as §1

[3] = biological target: BRAF(V600E) (Homo sapiens (Human), UniProt P15056, V600E); details: read-out: percent control
Description: as §1

[4] = biological target: FLT3(R834Q) (Homo sapiens (Human), UniProt P36888, R834Q); details: read-out: percent control
Description: as §1

[5] = biological target: NEK5 (Homo sapiens (Human), UniProt Q6P3R8); details: read-out: percent control
Description: as §1

[6] = biological target: RET(V804L) (Homo sapiens (Human), UniProt P07949, V804L); details: read-out: percent control
Description: as §1

[7] = biological target: MAP3K2 (Homo sapiens (Human), UniProt Q9Y2U5); details: read-out: percent control
Description: as §1

[8] = biological target: CDC2L5 (Homo sapiens (Human), UniProt Q14004); details: read-out: percent control
Description: as §1

[9] = biological target: RIPK1 (Homo sapiens (Human), UniProt Q13546); details: read-out: percent control
Description: as §1

[10] = biological target: DCAMKL3 (Homo sapiens (Human), UniProt Q9C098); details: read-out: percent control
Description: as §1

[11] = biological target: PRKD1 (Homo sapiens (Human), UniProt Q15139); details: read-out: percent control
Description: as §1

[12] = test system: FLT3(ITD); details: 1 μM
Description: as §1

[13] = biological target: JNK1 (Homo sapiens (Human), UniProt P45983); details: read-out: percent control
Description: as §1

[14] = biological target: ASK1 (Homo sapiens (Human), UniProt Q99683); details: read-out: percent control
Description: as §1

[15] = biological target: CAMKK1 (Homo sapiens (Human), UniProt Q8N5S9); details: read-out: percent control
Description: as §1

[16] = biological target: CSNK1G2 (Homo sapiens (Human), UniProt P78368); details: read-out: percent control
Description: as §1

[17] = biological target: ICK (Homo sapiens (Human), UniProt Q9UPZ9); details: read-out: percent control
Description: as §1

[18] = biological target: DMPK2 (Homo sapiens (Human), UniProt Q6DT37); details: read-out: percent control
Description: as §1

[19] = biological target: MET (Homo sapiens (Human), UniProt P08581); details: read-out: percent control
Description: as §1

[20] = biological target: TLK2 (Homo sapiens (Human), UniProt Q86UE8); details: read-out: percent control
Description: as §1

[21] = biological target: FLT3(D835Y) (Homo sapiens (Human), UniProt P36888, D835Y); details: read-out: percent control
Description: as §1

[22] = biological target: RET (Homo sapiens (Human), UniProt P07949); details: read-out: percent control
Description: as §1

[23] = biological target: CAMKK2 (Homo sapiens (Human), UniProt Q96RR4); details: read-out: percent control
Description: as §1

[24] = biological target: NIK (Homo sapiens (Human), UniProt Q99558); details: read-out: percent control
Description: as §1

[25] = biological target: HIPK1 (Homo sapiens (Human), UniProt Q86Z02); details: read-out: percent control
Description: as §1

[26] = biological target: MLCK (Homo sapiens (Human), UniProt Q32MK0); details: read-out: percent control
Description: as §1

[27] = biological target: ERK4 (Homo sapiens (Human), UniProt P31152); details: read-out: percent control
Description: as §1

[28] = biological target: TNK1 (Homo sapiens (Human), UniProt Q13470); details: read-out: percent control
Description: as §1

[29] = biological target: ROCK2 (Homo sapiens (Human), UniProt O75116); details: read-out: percent control
Description: as §1

[30] = biological target: MEK1 (Homo sapiens (Human), UniProt Q02750); details: read-out: percent control
Description: as §1

[31] = biological target: SIK (Homo sapiens (Human), UniProt P57059); details: read-out: percent control
Description: as §1

[32] = biological target: LRRK2 (Homo sapiens (Human), UniProt Q5S007); details: read-out: percent control
Description: as §1

[33] = biological target: PIKFYVE (Homo sapiens (Human), UniProt Q9Y2I7); details: read-out: percent control
Description: as §1

[34] = biological target: RPS6KA4(Kin.Dom.1-terminal) (Homo sapiens (Human), UniProt O75676); details: read-out: percent control
Description: as §1

[35] = biological target: INSR (Homo sapiens (Human), UniProt P06213); details: read-out: percent control
Description: as §1

[36] = biological target: SRMS (Homo sapiens (Human), UniProt Q9H3Y6); details: read-out: percent control
Description: as §1

[37] = biological target: FGR (Homo sapiens (Human), UniProt P09769); details: read-out: percent control
Description: as §1

[38] = biological target: ABL1(E255K)-phosphorylated (Homo sapiens (Human), UniProt P00519, E255K); details: read-out: percent control
Description: as §1

[39] = biological target: AKT1 (Homo sapiens (Human), UniProt P31749); details: read-out: percent control
Description: as §1

[40] = biological target: PDPK1 (Homo sapiens (Human), UniProt O15530); details: read-out: percent control
Description: as §1

Sequence of RPS6KA4(Kin.Dom.1-terminal) (O75676 33-301 limits assumed): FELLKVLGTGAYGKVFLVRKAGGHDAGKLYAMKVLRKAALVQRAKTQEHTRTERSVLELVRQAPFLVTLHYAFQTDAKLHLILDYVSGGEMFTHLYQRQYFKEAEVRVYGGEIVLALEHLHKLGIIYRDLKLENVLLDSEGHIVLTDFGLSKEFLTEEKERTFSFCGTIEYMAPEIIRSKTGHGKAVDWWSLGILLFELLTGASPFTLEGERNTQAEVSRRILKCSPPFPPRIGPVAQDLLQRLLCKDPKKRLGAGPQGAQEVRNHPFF
Sequence of ABL1(E255K)-phosphorylated (P00519 whole entry E255K): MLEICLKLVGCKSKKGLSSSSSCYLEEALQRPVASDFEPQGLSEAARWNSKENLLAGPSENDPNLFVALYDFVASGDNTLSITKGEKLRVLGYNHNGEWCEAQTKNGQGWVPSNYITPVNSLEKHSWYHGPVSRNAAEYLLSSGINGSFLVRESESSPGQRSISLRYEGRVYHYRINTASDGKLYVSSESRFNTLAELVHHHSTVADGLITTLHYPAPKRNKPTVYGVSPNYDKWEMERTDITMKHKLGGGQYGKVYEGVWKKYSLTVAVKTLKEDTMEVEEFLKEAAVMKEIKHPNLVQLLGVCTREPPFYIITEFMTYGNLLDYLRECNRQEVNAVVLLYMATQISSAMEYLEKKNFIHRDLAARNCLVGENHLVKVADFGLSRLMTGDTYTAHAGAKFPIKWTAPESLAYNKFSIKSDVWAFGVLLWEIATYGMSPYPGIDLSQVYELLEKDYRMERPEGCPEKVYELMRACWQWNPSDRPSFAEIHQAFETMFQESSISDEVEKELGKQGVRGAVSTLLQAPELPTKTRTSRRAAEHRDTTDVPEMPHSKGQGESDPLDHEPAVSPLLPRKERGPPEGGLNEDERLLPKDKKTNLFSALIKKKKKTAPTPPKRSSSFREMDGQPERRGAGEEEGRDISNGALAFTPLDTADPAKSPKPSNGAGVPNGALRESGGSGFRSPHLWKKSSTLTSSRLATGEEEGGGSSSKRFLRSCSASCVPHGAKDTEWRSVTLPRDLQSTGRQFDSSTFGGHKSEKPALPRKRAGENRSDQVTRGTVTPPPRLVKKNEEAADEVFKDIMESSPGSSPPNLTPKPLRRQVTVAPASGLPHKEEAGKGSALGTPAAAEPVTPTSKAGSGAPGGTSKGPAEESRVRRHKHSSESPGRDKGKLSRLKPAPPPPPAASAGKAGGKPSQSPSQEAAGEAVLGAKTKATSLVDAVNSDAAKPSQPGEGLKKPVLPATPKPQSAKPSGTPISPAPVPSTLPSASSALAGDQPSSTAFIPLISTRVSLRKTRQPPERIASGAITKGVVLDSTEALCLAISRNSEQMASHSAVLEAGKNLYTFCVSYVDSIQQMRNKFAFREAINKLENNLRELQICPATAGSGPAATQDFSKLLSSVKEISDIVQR
Sequence of NEK5 (Q6P3R8 whole entry): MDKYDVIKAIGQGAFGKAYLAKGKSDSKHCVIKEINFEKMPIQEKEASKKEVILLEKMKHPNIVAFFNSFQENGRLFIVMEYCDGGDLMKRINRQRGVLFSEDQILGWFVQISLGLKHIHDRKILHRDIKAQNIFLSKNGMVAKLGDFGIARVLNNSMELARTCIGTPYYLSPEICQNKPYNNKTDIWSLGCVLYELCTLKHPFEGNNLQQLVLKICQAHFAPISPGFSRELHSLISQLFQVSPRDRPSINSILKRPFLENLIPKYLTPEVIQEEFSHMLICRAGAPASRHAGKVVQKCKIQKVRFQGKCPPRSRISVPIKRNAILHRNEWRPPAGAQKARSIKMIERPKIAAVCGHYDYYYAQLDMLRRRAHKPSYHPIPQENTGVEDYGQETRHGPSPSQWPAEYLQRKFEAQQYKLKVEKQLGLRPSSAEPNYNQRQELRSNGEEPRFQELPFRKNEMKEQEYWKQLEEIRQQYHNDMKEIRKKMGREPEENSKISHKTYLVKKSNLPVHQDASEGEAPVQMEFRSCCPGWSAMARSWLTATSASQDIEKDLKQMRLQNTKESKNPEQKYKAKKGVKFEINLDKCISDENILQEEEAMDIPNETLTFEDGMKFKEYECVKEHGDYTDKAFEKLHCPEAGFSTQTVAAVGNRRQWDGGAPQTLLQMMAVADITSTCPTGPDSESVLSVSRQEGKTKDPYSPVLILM
Sequence of CSNK1G2 (P78368 whole entry): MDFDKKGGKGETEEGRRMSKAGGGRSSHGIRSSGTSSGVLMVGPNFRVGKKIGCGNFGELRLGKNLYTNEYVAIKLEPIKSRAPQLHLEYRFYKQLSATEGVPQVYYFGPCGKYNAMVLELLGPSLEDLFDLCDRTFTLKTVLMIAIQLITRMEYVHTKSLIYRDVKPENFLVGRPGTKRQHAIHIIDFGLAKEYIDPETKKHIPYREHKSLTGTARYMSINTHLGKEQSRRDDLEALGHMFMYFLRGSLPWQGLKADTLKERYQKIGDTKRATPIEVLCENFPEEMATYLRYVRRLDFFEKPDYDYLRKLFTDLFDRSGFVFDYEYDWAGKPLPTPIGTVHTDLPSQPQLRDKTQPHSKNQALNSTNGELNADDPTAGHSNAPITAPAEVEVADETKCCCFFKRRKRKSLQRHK
Sequence of RET(V804L) (P07949 29-1114 V804L): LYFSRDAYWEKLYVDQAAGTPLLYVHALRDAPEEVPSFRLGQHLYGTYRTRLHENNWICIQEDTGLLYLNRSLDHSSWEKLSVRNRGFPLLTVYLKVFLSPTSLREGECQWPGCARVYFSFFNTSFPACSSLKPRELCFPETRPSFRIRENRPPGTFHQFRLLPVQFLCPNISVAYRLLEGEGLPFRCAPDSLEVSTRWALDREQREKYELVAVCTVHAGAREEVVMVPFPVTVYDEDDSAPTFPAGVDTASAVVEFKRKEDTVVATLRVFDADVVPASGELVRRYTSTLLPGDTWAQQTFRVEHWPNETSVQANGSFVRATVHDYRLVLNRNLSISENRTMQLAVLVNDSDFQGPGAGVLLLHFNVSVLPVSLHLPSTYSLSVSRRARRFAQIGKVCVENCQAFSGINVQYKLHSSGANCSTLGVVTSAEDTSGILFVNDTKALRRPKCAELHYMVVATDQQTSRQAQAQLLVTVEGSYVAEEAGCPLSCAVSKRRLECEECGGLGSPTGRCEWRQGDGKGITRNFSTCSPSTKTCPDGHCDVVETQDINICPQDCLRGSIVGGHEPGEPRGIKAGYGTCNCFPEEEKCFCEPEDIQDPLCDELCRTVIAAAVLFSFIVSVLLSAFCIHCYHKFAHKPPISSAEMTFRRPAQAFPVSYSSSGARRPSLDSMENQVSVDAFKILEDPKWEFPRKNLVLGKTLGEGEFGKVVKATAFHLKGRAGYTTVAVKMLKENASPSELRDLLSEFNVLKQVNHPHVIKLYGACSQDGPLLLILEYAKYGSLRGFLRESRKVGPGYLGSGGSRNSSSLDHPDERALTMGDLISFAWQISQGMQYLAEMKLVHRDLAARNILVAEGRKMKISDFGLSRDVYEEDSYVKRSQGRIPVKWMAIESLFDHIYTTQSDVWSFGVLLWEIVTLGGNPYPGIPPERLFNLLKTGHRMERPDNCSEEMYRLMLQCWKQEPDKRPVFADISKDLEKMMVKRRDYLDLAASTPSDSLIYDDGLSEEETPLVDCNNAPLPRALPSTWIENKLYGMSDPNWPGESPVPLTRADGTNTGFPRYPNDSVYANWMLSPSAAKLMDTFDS
Sequence of TLK2 (Q86UE8 whole entry): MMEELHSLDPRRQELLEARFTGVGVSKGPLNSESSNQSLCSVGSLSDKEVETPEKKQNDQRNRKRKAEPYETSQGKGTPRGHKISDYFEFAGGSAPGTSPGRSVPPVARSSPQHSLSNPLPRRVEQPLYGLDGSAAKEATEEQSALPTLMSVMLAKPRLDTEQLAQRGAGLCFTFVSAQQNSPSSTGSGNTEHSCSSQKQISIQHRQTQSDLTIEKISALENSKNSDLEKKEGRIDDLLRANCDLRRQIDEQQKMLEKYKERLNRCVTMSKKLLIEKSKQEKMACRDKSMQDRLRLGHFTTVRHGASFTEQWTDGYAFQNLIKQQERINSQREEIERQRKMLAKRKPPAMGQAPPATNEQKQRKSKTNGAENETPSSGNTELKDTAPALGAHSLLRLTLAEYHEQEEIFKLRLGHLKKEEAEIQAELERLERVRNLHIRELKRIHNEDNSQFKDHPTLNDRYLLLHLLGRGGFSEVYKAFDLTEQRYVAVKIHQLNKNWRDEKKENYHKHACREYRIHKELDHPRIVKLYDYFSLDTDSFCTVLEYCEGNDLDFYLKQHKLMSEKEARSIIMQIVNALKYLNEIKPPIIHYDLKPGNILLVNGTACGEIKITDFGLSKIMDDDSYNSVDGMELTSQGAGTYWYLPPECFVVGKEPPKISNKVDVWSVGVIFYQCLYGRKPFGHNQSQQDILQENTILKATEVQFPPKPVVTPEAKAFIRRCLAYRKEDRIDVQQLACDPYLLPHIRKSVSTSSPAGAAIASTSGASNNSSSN
Sequence of DCAMKL3 (Q9C098 whole entry, looked up): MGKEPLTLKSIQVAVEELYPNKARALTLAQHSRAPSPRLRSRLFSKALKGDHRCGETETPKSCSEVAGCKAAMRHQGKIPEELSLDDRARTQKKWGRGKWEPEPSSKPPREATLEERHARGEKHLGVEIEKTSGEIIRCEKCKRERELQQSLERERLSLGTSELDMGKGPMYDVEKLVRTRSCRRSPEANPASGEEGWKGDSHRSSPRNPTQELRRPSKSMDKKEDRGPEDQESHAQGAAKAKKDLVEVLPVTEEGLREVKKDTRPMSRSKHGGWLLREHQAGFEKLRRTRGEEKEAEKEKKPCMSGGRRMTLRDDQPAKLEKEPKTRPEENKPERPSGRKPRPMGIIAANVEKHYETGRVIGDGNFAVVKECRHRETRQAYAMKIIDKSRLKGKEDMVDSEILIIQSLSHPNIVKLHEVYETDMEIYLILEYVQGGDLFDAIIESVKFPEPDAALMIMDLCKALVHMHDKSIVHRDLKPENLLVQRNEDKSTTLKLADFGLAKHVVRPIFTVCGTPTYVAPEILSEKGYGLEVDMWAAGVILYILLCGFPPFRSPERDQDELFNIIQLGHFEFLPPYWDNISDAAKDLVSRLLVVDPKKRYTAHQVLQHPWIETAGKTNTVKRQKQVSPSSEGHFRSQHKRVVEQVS
Sequence of RET (P07949 29-1114): as the sequence (P07949 29-1114 V804L) above, with L776V counted along it

SMILES | remaining binding at 1 µM [1] | remaining binding at 1 µM [2] | remaining binding at 1 µM [3] | remaining binding at 1 µM [4] | remaining binding at 1 µM [5] | remaining binding at 1 µM [6] | remaining binding at 1 µM [7] | remaining binding at 1 µM [8] | remaining binding at 1 µM [9] | remaining binding at 1 µM [10] | remaining binding at 1 µM [11] | percent control [12] | remaining binding at 1 µM [13] | remaining binding at 1 µM [14] | remaining binding at 1 µM [15] | remaining binding at 1 µM [16] | remaining binding at 1 µM [17] | remaining binding at 1 µM [18] | remaining binding at 1 µM [19] | remaining binding at 1 µM [20] | further results
CCN1CCN(Cc2ccc(Nc3nc4ccc(Oc5ccnc(NC(C)=O)c5)c(C)c4n3C)cc2C(F)(F)F)CC1 [Compound I-6, N-(4-(2-(4-((4-ethylpiperazin-1-yl)methyl)-3-(trifluoromethyl)phenylamino)-1,7-dimethyl-1H-benzo[d]imidazol-6-yloxy)pyridin-2-yl)acetamide] | 100% | 76% | 1.8% | 57% | 6.7% | 7.8% | 0.6% | 3.8% | 96% | 95% | 95% | 11% | 90% | 97% | 100% | 100% | 82% | 83% | 40% | 97% | remaining binding at 1 µM [21]: 56%; remaining binding at 1 µM [22]: 0.1%; remaining binding at 1 µM [23]: 99%; remaining binding at 1 µM [24]: 100%; remaining binding at 1 µM [25]: 81%; remaining binding at 1 µM [26]: 97%; remaining binding at 1 µM [27]: 90%; remaining binding at 1 µM [28]: 82%; remaining binding at 1 µM [29]: 90%; remaining binding at 1 µM [30]: 87%; remaining binding at 1 µM [31]: 98%; remaining binding at 1 µM [32]: 86%; remaining binding at 1 µM [33]: 93%; remaining binding at 1 µM [34]: 93%; remaining binding at 1 µM [35]: 12%; remaining binding at 1 µM [36]: 38%; remaining binding at 1 µM [37]: 51%; remaining binding at 1 µM [38]: 33%; remaining binding at 1 µM [39]: 89%; remaining binding at 1 µM [40]: 93%
CCN1CCN(Cc2ccc(Nc3nc4ccc(Oc5ccnc(NC(C)=O)c5)cc4n3C)cc2C(F)(F)F)CC1 [Compound I-2] | 74% | 100% | 0.8% | 100% | 38% | 15% | 21% | 59% | 88% | 85% | 99% | 24% | 79% | 77% | 100% | 100% | 100% | 89% | 43% | 98% | remaining binding at 1 µM [21]: 70%; remaining binding at 1 µM [22]: 0%; remaining binding at 1 µM [23]: 100%; remaining binding at 1 µM [24]: 100%; remaining binding at 1 µM [25]: 56%; remaining binding at 1 µM [26]: 100%; remaining binding at 1 µM [27]: 100%; remaining binding at 1 µM [28]: 76%; remaining binding at 1 µM [29]: 100%; remaining binding at 1 µM [30]: 94%; remaining binding at 1 µM [31]: 95%; remaining binding at 1 µM [32]: 100%; remaining binding at 1 µM [33]: 80%; remaining binding at 1 µM [34]: 100%; remaining binding at 1 µM [35]: 20%; remaining binding at 1 µM [36]: 67%; remaining binding at 1 µM [37]: 100%; remaining binding at 1 µM [38]: 30%; remaining binding at 1 µM [39]: 94%; remaining binding at 1 µM [40]: 94%
